Experiment: Acute toxicity / tolerated dose in healthy mice
Format: in vivo, mouse
Design: weight of experimental animals: unit not given here
Conditions: for animals in the group alive: 24 days
From the text: To this end, the effects of the agent according to the invention on the basic physiological functions of healthy animals were studied. 70 male Cs7Bl/6J mice at the age of 7-8 weeks, weighing 18-23 g were used in the experiment. The animals were taken from R. E. Kavetsky IEPOR NASU Vivarium. Before the experiment, all the animals were healthy, with normal behavioral performance. During the experiment, the animals were kept in plastic cages under natural light illumination, on a standard diet with free access to food and water.
Clinical observations were carried out by daily examination of all animals kept in cages to identify mortality or any signs of a deviation in health status. […] All deviations were recorded. The size of the tumors was measured every 2 days (3 times a week) after the apparent onset of ascites/tumor node growth (at day 8 after the inoculation of tumor cells). Dying animals were euthanized, weighed and necropsied. The decision to euthanize such animals was taken jointly with the research supervisor and veterinarian. The animals were subjected to complete necrosis, which included examination of the external surface of the body, all passages, cranial, thoracic, abdominal cavities and their contents.
In the experiment, the animals were administered the solution comprising ^64Zne aspartate intraperitoneally at doses of 120 μg/mouse, 80 μg/mouse, 50 μg/mouse and 25 μg/mouse, and intravenously at doses of 50 μg/mouse, 25 gig/mouse and 12.5 μg/mouse. The agent was dissolved in deuterium-depleted water and injected 7 times every other day for 14 days in a volume of 0.5 ml/mouse for intraperitoneal injection and in a volume of 0.2 ml for intravenous injection with the agent. In order to determine the maximum tolerated dose of ^64Zne aspartate included in the composition of the agent according to the invention, the laboratory mice were injected with the ^64Zne aspartate solution using a series of injections (7 injections) and different routes of administration (i.p. or i.v.). The animals were observed during 24 days after the first administration of the agent (14 days for a series of injections of the ^64Zne compound and 10 days after the last administration of the agent). The overall health of the animals, state of coat and mucous membranes, their behavior, reflexes, and basic functions of the gastrointestinal tract were evaluated.

NC(CC(=O)[O-])C(=O)[O-].[64Zn+2] (racemic) [^64Zne aspartate, ^64Zn aspartate (racemic)]
animals in the group alive (i.p. 25 μg/mouse x7): 100% of the animals in the group are alive. Locomotor activity is
weight of experimental animals (i.p. 25 μg/mouse, day 0): 21.1 ± 0.5
weight of experimental animals (i.p. 25 μg/mouse, day 2): 20.1 ± 0.3
weight of experimental animals (i.p. 25 μg/mouse, day 4): 18.3 ± 0.7
weight of experimental animals (i.p. 25 μg/mouse, day 8): 18.4 ± 1
weight of experimental animals (i.p. 25 μg/mouse, day 11): 18.2 ± 0.9
weight of experimental animals (i.p. 25 μg/mouse, day 15): 19.2 ± 0.5
weight of experimental animals (i.p. 25 μg/mouse, day 19): 19.8 ± 0.4
weight of experimental animals (i.p. 25 μg/mouse, day 24): 20.5 ± 0.6
animals in the group alive (i.p. 50 μg/mouse x7): 100% of the animals in the group are alive. Locomotor activity is
weight of experimental animals (i.p. 50 μg/mouse, day 0): 21.3 ± 0.5
weight of experimental animals (i.p. 50 μg/mouse, day 2): 20.4 ± 0.4
weight of experimental animals (i.p. 50 μg/mouse, day 4): 19.2 ± 0.6
weight of experimental animals (i.p. 50 μg/mouse, day 8): 19.8 ± 0.7
weight of experimental animals (i.p. 50 μg/mouse, day 11): 19.5 ± 0.8
weight of experimental animals (i.p. 50 μg/mouse, day 15): 19 ± 0.6
weight of experimental animals (i.p. 50 μg/mouse, day 19): 19.2 ± 0.7
weight of experimental animals (i.p. 50 μg/mouse, day 24): 20 ± 0.5
animals in the group alive (i.p. 80 μg/mouse x7): 80% of the animals in the group are alive. Some changes in the
animals died after 4 or 5 injections (i.p. 80 μg/mouse, 8th or 10th day): agent. 20% of the animals in the group died after 4 or 5 injections
animals with short-lasting diarrhea (i.p. 80 μg/mouse, 18-24 hours after administration): It should be noted that a short-lasting diarrhea was observed in 40%
body weight loss compared to the control figures (i.p. 80 μg/mouse, already on the 4th day after first injection): 15-20%
weight of experimental animals (i.p. 80 μg/mouse, day 0): 21.4 ± 0.4
weight of experimental animals (i.p. 80 μg/mouse, day 2): 20.5 ± 0.5
weight of experimental animals (i.p. 80 μg/mouse, day 4): 17.3 ± 0.2
weight of experimental animals (i.p. 80 μg/mouse, day 8): 17.5 ± 0.1
weight of experimental animals (i.p. 80 μg/mouse, day 11): 17.3 ± 0.1
weight of experimental animals (i.p. 80 μg/mouse, day 15): 16.5 ± 0.1
weight of experimental animals (i.p. 80 μg/mouse, day 19): 17.2 ± 0.2
weight of experimental animals (i.p. 80 μg/mouse, day 24): 17.6 ± 0.1
animals in the group died (i.p. 120 μg/mouse, within 48 hours after the first injection): 100% of the animals in the group died within 48 hours after the
animals in the group alive (i.v. 12.5 μg/mouse x7): 100% of the animals in the group are alive. Locomotor activity is
weight of experimental animals (i.v. 12.5 μg/mouse, day 0): 21.1 ± 0.4
weight of experimental animals (i.v. 12.5 μg/mouse, day 2): 20.9 ± 0.3
weight of experimental animals (i.v. 12.5 μg/mouse, day 4): 20.2 ± 0.5
weight of experimental animals (i.v. 12.5 μg/mouse, day 8): 20.6 ± 0.9
weight of experimental animals (i.v. 12.5 μg/mouse, day 11): 20.6 ± 1
weight of experimental animals (i.v. 12.5 μg/mouse, day 15): 20.9 ± 0.9
weight of experimental animals (i.v. 12.5 μg/mouse, day 19): 21 ± 0.7
weight of experimental animals (i.v. 12.5 μg/mouse, day 24): 21.1 ± 0.8
animals in the group alive (i.v. 25 μg/mouse x7): 100% of the animals in the group are alive. Locomotor activity is
weight of experimental animals (i.v. 25 μg/mouse, day 0): 21.8 ± 0.3
weight of experimental animals (i.v. 25 μg/mouse, day 2): 21.3 ± 0.5
weight of experimental animals (i.v. 25 μg/mouse, day 4): 20.8 ± 0.5
weight of experimental animals (i.v. 25 μg/mouse, day 8): 21.4 ± 0.5
weight of experimental animals (i.v. 25 μg/mouse, day 11): 21.4 ± 0.5
weight of experimental animals (i.v. 25 μg/mouse, day 15): 21.3 ± 0.6
weight of experimental animals (i.v. 25 μg/mouse, day 19): 21.7 ± 0.4
weight of experimental animals (i.v. 25 μg/mouse, day 24): 21.6 ± 0.5
animals in the group died (i.v. 50 μg/mouse, within 10-20 minutes after the first injection): 100% of the animals in the group died within 10-20 minutes after
maximum tolerated dose (intraperitoneal): 80 μg/mouse
maximum tolerated dose (intravenously): 25 μg/mouse
